According to a melting point compilation (Tetko et al.; mined from patent text by program, amines drawn as free bases though some values may be those of a salt):
Residues, ends and D or L forms follow the SMILES beside them. *: point of attachment. Boc = CC(C)(C)OC(=O)*

melting point [°C]	SMILES
> 270	COCC(O)c1nc2cc(Cl)ccc2c(O)c1C(=O)Nc1nccs1 (stereo not given)
160	O=C1N(c2cc(Cl)cc(Cl)c2)C(=O)C2(Cc3ccc(Br)cc3)CC(F)(F)CN12 (stereo not given)
172 to 174	CC(C)(C)NC(=S)Nc1cc(Br)cc(Br)c1
190 to 192	Cc1ccc(-c2c(-c3ccc(S(C)(=O)=O)cc3)cnn(-c3ccc(F)c(F)c3)c2=O)cc1
153 to 154	Cc1ccc(C=CC(=O)c2ccc3c(c2)C(C)(C)CCC3(C)C)cc1
194 to 195	COc1ccc(S(=O)(=O)Nc2ccccc2NC(=O)c2ccncc2C)cc1
175 to 180	COc1cc(O)ccc1/C=C/C(=O)CC(=O)/C=C/c1cc(OCc2ccccc2)ccc1-c1ccccc1
256 to 259	CC(=O)Nc1c(-c2ccc(-c3ccccc3)cc2)nc2ccc(F)cc2c1C(=O)O
209 to 211	COc1c(-c2ccc(C=NNS(C)(=O)=O)cc2)cc(N2CCC(=O)NC2=O)cc1C(C)(C)C
46 to 49	Cc1cc(C2(C(F)(F)F)CC(C#N)=C(c3ccccc3)O2)ccc1NC(=O)OC(C)(C)C (stereo not given)
149 to 151	COc1ccc(S(=O)(=O)Nc2ncnc(Cl)c2Cc2ccccc2OC)cc1
> 300	COc1ccc(OC(N)=O)cc1
158	CCN(CC)CCNC(=O)c1nc(Cl)c(N)nc1OC
98 to 100	O=C(CCCN1CCC2(CC1)SC(c1ccc(Cl)cc1)c1ccccc12)c1ccc(F)cc1F (stereo not given)
163 to 165	CS(=O)(=O)c1ccc(/C(=C\C2CCCCCC2)C(=O)Nc2nccs2)cc1
187 to 188	Cn1ccnc1N1CCC(c2ccc(N)cc2)CC1
70	CCOc1ccc(-n2cnnc2C(F)(F)F)cc1
156 to 158	COc1ccc(F)c2c(O)c(C=O)ccc12
62	CC(=O)C1CCC(=O)N1C(C)=O (stereo not given)
104 to 107	O=S(=O)(c1ccc(-c2ccc(C(O)CCl)cc2)cc1)C(F)F (stereo not given)

melting point [°C]	SMILES
167	COc1cc(O)c(C(=O)C=Cc2ccc(Cl)cc2)c(OC)c1
91 to 92	Cc1nc(Cc2ccc(N)cc2)sc1C
165 to 167	O=C(O)COc1c(-c2cccc(Cl)c2)cc(C(=O)NCCCCCCCCc2ccccc2)cc1-c1cccc(Cl)c1
45 to 47.5	C#CC(=O)Oc1ccc(OCc2ccccc2)cc1
99 to 101	COC(=O)c1ccc(OCC(C)NCC(O)c2cccc(Cl)c2)cc1 (stereo not given)
78 to 79	CC1(c2cc(Cl)nnc2Cl)CC1(Cl)Cl (stereo not given)
46 to 48	Cc1c(CO)ncnc1N(C)C
222 to 224	N#Cc1cnn2c(-c3cccc(F)c3)ccnc12
145	CON(Cc1ccc(C)c(F)c1)C(=O)C1=C(O)C(=O)N(C)C1
172 to 174	NCCCCCCCCCCCCCCCCCCCC(=O)O
149 to 152	N#Cc1ccc(C#CCCC(=O)O)cc1
104 to 106	C[C@H](CSC(=O)c1ccccc1)C(=O)N1C(=O)N(Cc2ccccc2)C[C@H]1C(=O)OC(C)(C)C
90 to 91	O=C(O)c1c(Br)cc(OCc2ccccc2)cc1OCc1ccccc1
113 to 114	COc1ccc2c(c1)OCC(c1ccccc1)C2c1ccc(OCCN2CCCC2)cc1 (stereo not given)
145 to 147	Cc1[nH]c(C=O)c(C)c1CCC(=O)O
175	O=S1(=O)c2ccccc2C(c2ccccc2)N1CCN1CCC(Cc2c[nH]c3ccc(F)cc23)CC1 (stereo not given)
251	COc1ccc2[nH]c(C(=O)N[C@H]3CCN(C(=O)c4cc(Cl)cc(Cl)c4)[C@H](Cc4ccccc4)C3)cc2c1 (relative stereo)
161 to 162	Cn1cnc(-c2ccccc2)c1-c1ccncc1
187 to 189	CCc1cc(CC)c2ccc(N)nc2n1
168 to 170	COCn1nccc1C(=O)c1cc2c(c(Cl)c1Cl)OC(C(=O)O)O2 (stereo not given)

melting point [°C]	SMILES
133 to 135	CCOC(=O)CCC(O)c1cnc2c(OC)cccc2c1Nc1ccccc1C (stereo not given)
219 to 220	CC1CN(c2ncc(C(=O)N(c3cccc(C(F)(F)F)c3)C3CCCC3)c(N)n2)C(=O)N1 (stereo not given)
180 to 181	N#CCCNC(=O)c1n[nH]cc1NC(=O)C1CCCC1
124	O=C1CCC(c2cc(F)c(F)c(F)c2)CC1
156 to 158	COc1cc(OC)nc(NC(=O)NS(=O)(=O)c2ncccc2OCCCl)n1
77 to 79	COc1cc2c(cc1Nc1ncc(Cl)c(Nc3ccccc3S(=O)(=O)N(C)C)n1)CCN(CCOC(=O)CN)CC2
125 to 126	Cc1nn(-c2ccc(C(F)(F)F)cn2)cc1CCCOc1cc(CCC(=O)O)n(-c2ccccc2)n1
270 to 271	CCC(=O)c1[nH]c(=O)[nH]c1C
218 to 222	Oc1ccc2oc(-c3ccc(O)c(F)c3)cc2c1
58 to 60	O=C(Oc1ccccc1)N1CCC(Sc2ccccc2F)CC1
131 to 133	CC(=O)OC1CC2=CCC3C4CCC(C(C)CCCC(C)C)C4(C)CCC3C2(C)C(O)C1O (stereo not given)
95 to 96	OC1(c2ccc3c(c2)OCO3)CCC2(CC1)OCCO2
220 to 221	O=c1[nH]c2ccc(Br)cc2c(=O)n1CCCS
208 to 211	CCCCc1oc2ccccc2c1C(=O)NCc1ccc2c(-c3ccc(Cl)cc3)c(OCc3nnn[nH]3)ccc2c1
95.6 to 96.7	CC(C#CC1CCC(Oc2ccc(F)cc2)C1)N(O)C(N)=O (stereo not given)
105	c1ccc(CCCNc2ccc(-c3cc(-c4ccc(NCCCc5ccccc5)cc4)cc(-c4ccc(NCCCc5ccccc5)cc4)c3)cc2)cc1
87 to 100	O=C1N(c2cccc(C(F)(F)F)c2)CC(CCl)C1(Cl)Cl (stereo not given)
66 to 69	CCCCCCCCCCCCCCC(F)(F)P(=O)(O)O
182 to 184	C[C@H](O)Cn1c(=O)c(Oc2ccc(F)cc2F)cc2cnc(N[C@@H](C)CO)nc21
98 to 100	CC(C)(C)OC(=O)N1CCCC1C(=O)NC(Cc1ccccc1)C(=O)NCC(=O)O (stereo not drawn) (Boc-Pro-Phe-Gly-OH; configuration not given here)

More lines, now with the values behind:

SMILES	melting point [°C]
Cc1cccc(-c2nc(=O)c3ccccc3s2)n1	170
CCOC(=O)C(=O)Nc1cc(C(F)(F)F)c(S(=O)(=O)NC(=O)C(=O)OCC)cc1[N+](=O)[O-]	175 to 180
CC(C)NC(=O)C1=C(C(=O)Nc2ccc(Cl)cc2F)CCCC1	188 to 189
c1cn(-c2nc(N3CCOCC3)nc(-n3ccnc3)n2)cn1	268 to 270
OC1CCCCC1n1ccnc1 (stereo not given)	127 to 131
Cc1c(-c2ccccc2)sc2c(Cl)c(Cl)c(OCC(=O)O)cc12	232 to 233
CC(C)(C)OC(=O)Nc1ccc(-c2cccc3ccccc23)cc1[N+](=O)[O-]	60 to 66
CN(CCCCc1ccc(NC(=O)c2cccc3c(=O)c4ccccc4[nH]c23)cc1)Cc1ccc(F)cc1	151
CCN(CC)C(=O)c1cc(-c2ccc(OC)cc2)c2ccccc2c1	147 to 149
COC(=O)CCc1cc2nc(Cl)ccc2n1S(=O)(=O)c1cccc2cccnc12	120
CC(=O)NCc1ccc(CN2CCN(c3nc(Cl)cc(Cl)n3)CC2)cc1	139 to 140
CN(C)C(=O)c1ccccc1-c1ccc(C(=O)N2Cc3ccc(C(=O)NCc4cccnc4)n3Cc3ccccc32)cc1	206 to 207
CCCCC(CC)Nc1cc(C)nc(Cl)c1N (stereo not given)	139 to 140
CC(C)(Cc1ccc(Cl)cc1)C(C#N)C(=O)O (stereo not given)	137 to 138
O=c1c2ccccc2sn1SCc1ccccc1	111 to 112
NS(=O)(=O)c1ccc(C2=C(c3ccc(Cl)cc3)CCC2)cc1	177 to 178
CCOC(=O)C(=O)CC(=O)c1cn(Cc2c(F)cccc2F)c2ccccc2c1=O	172 to 173
O=C1c2ccccc2C(=O)N1COc1ccc([N+](=O)[O-])cc1	145 to 148
Cc1nnc2n1-c1ccc(C#CCn3nc4ccccn4c3=O)cc1C(c1ccccc1F)=NC2	170 to 173
CN1CCc2ccc(C(=O)CCC(=O)N3CCC(c4ccc(Cl)cc4)CC3)cc2CC1	143 to 145

SMILES	melting point [°C]
O=c1cc(NCC2CCCO2)oc2c1ccc1ccccc12 (stereo not given)	139 to 140
CC(C)(C)c1nn(-c2c(Cl)cc(C(F)(F)F)cc2Cl)c(N)c1Cl	137
CSc1nc(CO)c(CO)n1-c1ccccc1	137 to 138
CCOC(=O)C(=CNc1cccnc1OC)C(=O)OCC	65
CC1(C)CCc2c(N)c(Cl)cc(C(=O)O)c2O1	165
CC(c1ccc(C#N)nc1)C(O)(Cn1cncn1)c1ccc(F)cc1F (stereo not given)	136 to 141
NC(CCN(CCC(N)=NO)CCN(CCC(N)=NO)CCC(N)=NO)=NO	191 to 192
COC(=O)CCC/C=C(/c1cc(C)c2onc(OC)c2c1)c1cc(C)c2oc(=O)n(C)c2c1	54 to 55
OCCC(c1ccccc1)C(O)(c1ccccc1)c1ccc(OCc2ccccc2)cc1 (stereo not given)	109 to 115
COC(=O)CSC1c2ccccc2C=Cc2ccccc21	74 to 76
O=C(Cc1ccncc1)NC(Cc1ccc(Cl)c(Cl)c1)C(=O)CCc1cc(C(F)(F)F)cc(C(F)(F)F)c1 (stereo not given)	142 to 144
CCOC(=O)C(C)(C)n1c(=O)[nH]c2ccccc2c1=O	133 to 134
FC(F)(F)c1nc(-c2ccc(Cl)cc2)c(-c2ccc(Cl)cc2)s1	101 to 102
COc1cc(OC)nc(NC(=O)NS(=O)(=O)c2ccccc2C(C)=O)n1	126 to 128
Nc1c(-c2ccc(-c3cccnc3)cc2)nc2ccc(F)cc2c1C(=O)O	260 to 268
Cc1cc(C)c2nc(C)c(C(=O)O)c(-c3ccccc3Cl)c2c1	278 to 279
COc1ccc2[nH]cc(-c3cc4nccnc4[nH]3)c2c1	268 to 271
N#Cc1cc2c(s1)-c1ccccc1OC2c1ccccc1 (stereo not given)	138 to 140
Cc1csc(C)c1CO	80 to 81
CCOC(=O)c1c(C)nc2snnc2c1NC(C)C	62 to 65
